Assay results from patent US20070179143A1 (priority 2003, published 2007).

How the values were obtained:
SK-OV-3 = test: Cytotoxicity test to cancer cell lines (SRB method), SK-OV-3; assay type: cell-based; conditions: Homo sapiens, SK-OV-3, 48 h, read-out: Cytotoxicity ED50 SK-OV-3
SK-MEL-2 = test: Cytotoxicity test to cancer cell lines (SRB method), SK-MEL-2; assay type: cell-based; conditions: Homo sapiens, SK-MEL-2, 48 h, read-out: Cytotoxicity ED50 SK-MEL-2
A549 = test: Cytotoxicity test to cancer cell lines (SRB method), A549; conditions: Homo sapiens, A549, 48 h, read-out: Cytotoxicity ED50 A549
Experimental: (§1) Cytotoxicity to A549 (Korea Research Institute of Chemical Technology), SK-OV-3 (Korea Research Institute of Chemical Technology), SK-MEL-2 (Korea Research Institute of Chemical Technology), HCT-15 (Korea Research Institute of Chemical Technology) and MCF7 (Korean Cell Line Bank, Seoul National University School of medicine) cells was measured by Sulforhodamin-B (SRB) method (1989, National Cancer Institute (NCI)) which was developed for the measurement of in vitro anticancer activity of a drug. Cells were separated using 0.25% trypsin-EDTA solution, leading to the preparation of a cell suspension by 5×10^318 2×10^4 cells/well. Then, the suspension was distributed into a 96 well plate by 100 μl/well, which was cultured in a 37° C., 5% CO2 incubator for 24 hours. Compounds prepared in examples of the present invention were used as a sample. Precisely, the compound was dissolved in dimethylsulfoxide and diluted with RPMI 1640 medium before being used as a sample. The final concentration of the sample used varied ranging 1 μM˜0.00001 μM. The medium was removed from the 96 well plate and then diluted sample solution was added by 100 μl/well, followed by further culture in a 37° C., 5% CO2 incubator for 48 hours. Tz (time zero) plate was collected from the point of adding the sample. Upon completing the culture, the medium was removed from each well along with Tz plate, then 10% trichloroacetic acid (TCA) was added by 100 μl/well. The plate was left at 4° C. for 1 hour to let cells be fixed on the floor of the plate. After cells were fixed completely, the plate was washed with water 5-6 times to remove the remaining trichloroacetic acid solution completely and moisture was completely dried at room temperature. 0.4% Sulforhodamine-B was dissolved in 1% acetic acid solution to prepare a staining solution. Cells were stained for 30 minutes with a dye added by 100 μl to each well of the completely dried plate. Then, the plate was washed with 1% acetic acid solution 5-6 times to remove sulforhodamine-B remained uncombined with cells. Then, the plate was dried at room temperature. 10 mM Tris solution was added by 100 μ/well thereto to dissolve the dye, and optical density (OD) was measured at 520 nm with a micro plate reader.
(§2) ED50 (concentration that inhibits cancer cell growth 50%, 5.0% effective dose, nM/ml) of the sample to cancer cell was calculated as follows. OD value at the point of beginning the culture with the sample was determined as Tz (time zero) value. OD value of a well to be cultured without the sample was determined as a control value (C). OD value of a well pretreated with the sample was determined as experimental value (T). After calculating Tz, C and T, cytotoxicity of the sample was measured by the below <Mathematical Formula 1>. T≦Tz, (T−Tz)/(C−Tz)×100 T>Tz, (T−Tz)/Tz×10,0 <Mathematical Formula 1>
(§3) ED50, the concentration that can inhibit cancer cell growth by 50%, was calculated by using a regression analysis of lotus program based on the degree of cytotoxicity obtained by the <Mathematical Formula 1>.

MCF7 = test: Cytotoxicity test to cancer cell lines (SRB method), MCF7; conditions: read-out: Cytotoxicity ED50 MCF-7, MCF-7, 48 hours
Experimental: as §1, §2, §3

HCT-15 = test: Cytotoxicity test to cancer cell lines (SRB method), HCT-15; conditions: Homo sapiens, HCT-15, 48 h, read-out: Cytotoxicity ED50 HCT15

## COc1cc2c(c(OC)c1OC)-c1ccc(SC)c(=O)cc1[C@@H](NC(=O)c1cccc(CO[N+](=O)[O-])c1F)CC2 [Example 10, 2-fluoro-3-nitrooxymethyl-N-[(7S)-1,2,3-trimethoxy-10-methylsulfanyl-9-oxo-5,6,7,9-tetrahydro-benzo[a]heptalen-7-yl]-benzamide]
SK-OV-3
  EC50: 0.23 nM
SK-MEL-2
  EC50: 0.12 nM
A549
  EC50: 0.28 nM
MCF7
  EC50: 0.09 nM
HCT-15
  EC50: 0.39 nM

## COc1c(OC2CCCC2)cc2c(c1OC)-c1ccc(SC)c(=O)cc1[C@@H](NC(=O)c1cccc(CO[N+](=O)[O-])c1F)CC2 [Example 11, N-[(7S)-3-cyclopentyloxy-1,2-dimethoxy-10-methylsulfanyl-9-oxo-5,6,7,9-tetrahydro-benzo[a]heptalen-7-yl]-2-fluoro-3-nitrooxymethyl-benzamide]
SK-OV-3
  EC50: > 50 nM
SK-MEL-2
  EC50: > 50 nM
A549
  EC50: > 50 nM
MCF7
  EC50: 39 nM
HCT-15
  EC50: > 50 nM

## CCOc1cc2c(c(OC)c1OC)-c1ccc(SC)c(=O)cc1[C@@H](NC(=O)c1cc(F)cc(CO[N+](=O)[O-])c1)CC2 [Example 13, N-[(7S)-3-ethoxy-1,2-dimethoxy-10-methylsulfanyl-9-oxo-5,6,7,9-tetrahydro-benzo[a]heptalen-7-yl)-3-fluoro-5-nitrooxymethyl-benzamide]
SK-OV-3
  EC50: 0.18 nM
SK-MEL-2
  EC50: 0.04 nM
A549
  EC50: 0.13 nM
MCF7
  EC50: 0.02 nM
HCT-15
  EC50: 0.11 nM

## COc1c(OC(C)C)cc2c(c1OC)-c1ccc(SC)c(=O)cc1[C@@H](NC(=O)c1cc(F)cc(CO[N+](=O)[O-])c1)CC2 [Example 14, 3-fluoro-N-[(7S)-3-isopropoxy-1,2-dimethoxy-10-methylsulfanyl-9-oxo-5,6,7,9-tetrahydro-benzo[a]heptalen-7-yl]-5-nitrooxymethyl-benzamide]
SK-OV-3
  EC50: 30.6 nM
SK-MEL-2
  EC50: 32.8 nM
A549
  EC50: 28.2 nM
MCF7
  EC50: 11.2 nM
HCT-15
  EC50: 9.9 nM

## COc1c(OC2CCCC2)cc2c(c1OC)-c1ccc(SC)c(=O)cc1[C@@H](NC(=O)c1cc(F)cc(CO[N+](=O)[O-])c1)CC2 [Example 15, N-[(7S)-3-cyclopentyloxy-1,2-dimethoxy-10-methylsulfanyl-9-oxo-5,6,7,9-tetrahydro-benzo[a]heptalen-7-yl]-3-fluoro-5-nitrooxymethyl-benzamide]
SK-OV-3
  EC50: > 50 nM
SK-MEL-2
  EC50: 22.5 nM
A549
  EC50: 30.2 nM
MCF7
  EC50: 18.8 nM
HCT-15
  EC50: 23.4 nM

## COc1cc2c(c(OC)c1OC)-c1ccc(SC)c(=O)cc1[C@@H](NC(=O)c1cc(CO[N+](=O)[O-])ccc1F)CC2 [Example 17, 2-fluoro-5-nitrooxymethyl-N-[(7S)-1,2,3-trimethoxy-10-methylsulfanyl-9-oxo-5,6,7,9-tetrahydro-benzo[a]heptalen-7-yl]-benzamide]
SK-OV-3
  EC50: 0.19 nM
SK-MEL-2
  EC50: 0.17 nM
A549
  EC50: 0.21 nM
MCF7
  EC50: 0.08 nM
HCT-15
  EC50: 0.19 nM

## COc1cc2c(c(OC)c1OC)-c1ccc(SC)c(=O)cc1[C@@H](NC(=O)c1cc(CO[N+](=O)[O-])cc(CO[N+](=O)[O-])c1)CC2 [Example 19, 3,5-bis-nitrooxymethyl-N-[(7S)-1,2,3-trimethoxy-10-methylsulfanyl-9-oxo-5,6,7,9-tetrahydro-benzo[a]heptalen-7-yl]-benzamide]
SK-OV-3
  EC50: 34.8 nM
SK-MEL-2
  EC50: 31 nM
A549
  EC50: 23.5 nM
MCF7
  EC50: 8.2 nM
HCT-15
  EC50: 10.1 nM

## COc1cc2c(c(OC)c1OC)-c1ccc(SC)c(=O)cc1[C@@H](NC(=O)c1ccc(CO[N+](=O)[O-])cc1O)CC2 [Example 20, 2-hydroxy-4-nitrooxymethyl-N-[(7S)-1,2,3-trimethoxy-10-methylsulfanyl-9-oxo-5,6,7,9-tetrahydro-benzo[a]heptalen-7-yl]-benzamide]
SK-OV-3
  EC50: 1.83 nM
SK-MEL-2
  EC50: 2.47 nM
A549
  EC50: 3.93 nM
MCF7
  EC50: 1.15 nM
HCT-15
  EC50: 1.03 nM

## COc1cc2c(c(OC)c1OC)-c1ccc(SC)c(=O)cc1[C@@H](NC(=O)c1cc(CO[N+](=O)[O-])cs1)CC2 [Example 21, 4-nitrooxymethyl-thiophene-2-carboxylic acid [(7S)-1,2,3-trimethoxy-10-methylsulfanyl-9-oxo-5,6,7,9-tetrahydro-benzo[a]heptalen-7-yl]-amide]
SK-OV-3
  EC50: 0.59 nM
SK-MEL-2
  EC50: 0.29 nM
A549
  EC50: 0.97 nM
MCF7
  EC50: 0.1 nM
HCT-15
  EC50: 0.13 nM

## COc1cc2c(c(OC)c1OC)-c1ccc(SC)c(=O)cc1[C@@H](NC(=O)c1sccc1CO[N+](=O)[O-])CC2 [Example 22, 3-nitrooxymethyl-thiophene-2-carboxylic acid [(7S)-1,2,3-trimethoxy-10-methylsulfanyl-9-oxo-5,6,7,9-tetrahydro-benzo[a]heptalen-7-yl]-amide]
SK-OV-3
  EC50: 1.41 nM
SK-MEL-2
  EC50: 0.87 nM
A549
  EC50: 1.11 nM
MCF7
  EC50: 0.21 nM
HCT-15
  EC50: 0.95 nM

## COc1cc2c(c(OC)c1OC)-c1ccc(SC)c(=O)cc1[C@@H](NC(=O)Cc1cccc(CO[N+](=O)[O-])c1)CC2 [Example 23, 2-(3-nitrooxymethyl-phenyl)-N-[(7S)-1,2,3-trimethoxy-10-methylsulfanyl-9-oxo-5,6,7,9-tetrahydro-benzo[a]heptalen-7-yl]-acetamide]
SK-OV-3
  EC50: 5.6 nM
SK-MEL-2
  EC50: 3.5 nM
A549
  EC50: 5.4 nM
MCF7
  EC50: 3.3 nM
HCT-15
  EC50: 3.4 nM

## COc1cc2c(c(OC)c1OC)-c1ccc(SC)c(=O)cc1[C@@H](NC(=O)c1cccc(COC(=O)CCCO[N+](=O)[O-])c1)CC2 [Example 34, 4-nitrooxybutyric acid-3-[(7S)-1,2,3-trimethoxy-10-methylsulfanyl-9-oxo-5,6,7,9-tetrahydro-benzo[a]heptalen-7-yl-carbamoyl]-benzylester]
SK-OV-3
  EC50: 0.01 nM
SK-MEL-2
  EC50: 0.01 nM
A549
  EC50: 0.06 nM
MCF7
  EC50: 0.01 nM
HCT-15
  EC50: 0.01 nM

## COc1cc2c(c(OC)c1OC)-c1ccc(SC)c(=O)cc1[C@@H](NC(=O)c1ccccc1SN=O)CC2 [Example 35, 2-nitrosothio-N-[(7S)-1,2,3-trimethoxy-10-methylsulfanyl-9-oxo-5,6,7,9-tetrahydro-benzo[a]heptalen-7-yl]-benzamide]
SK-OV-3
  EC50: > 50 nM
SK-MEL-2
  EC50: 41.9 nM
A549
  EC50: > 50 nM
MCF7
  EC50: 24.7 nM
HCT-15
  EC50: 20.9 nM

## COc1cc2c(c(OC)c1OC)-c1ccc(SC)c(=O)cc1[C@@H](NC(=O)c1cc(F)cc(CON=O)c1)CC2 [Example 37, 3-fluoro-5-nitrosooxymethyl-N-[(7S)-1,2,3-trimethoxy-10-methylsulfanyl-9-oxo-5,6,7,9-tetrahydro-benzo[a]heptalen-7-yl]-benzamide]
SK-OV-3
  EC50: 38.8 nM
SK-MEL-2
  EC50: 9.4 nM
A549
  EC50: > 50 nM
MCF7
  EC50: 10.3 nM
HCT-15
  EC50: 7.5 nM

## COc1cc2c(c(OC)c1OC)-c1ccc(SC)c(=O)cc1[C@@H](NC(=O)c1cc(F)cc(CSN=O)c1)CC2 [Example 39, 3-fluoro-5-nitrosothiomethyl-N-[(7S)-1,2,3-trimethoxy-10-methylsulfanyl-9-oxo-5,6,7,9-tetrahydro-benzo[a]heptalen-7-yl]-benzamide]
SK-OV-3
  EC50: 28.2 nM
SK-MEL-2
  EC50: > 50 nM
A549
  EC50: 40.7 nM
MCF7
  EC50: 5 nM
HCT-15
  EC50: 9.9 nM

## COc1cc2c(c(OC)c1OC)-c1ccc(OC)c(=O)cc1[C@@H](NC(=O)c1cc(F)cc(CO[N+](=O)[O-])c1)CC2 [Example 40, 3-fluoro-5-nitrooxymethyl-N-[(7S)-1,2,3,10-tetramethoxy-9-oxo-5,6,7,9-tetrahydro-benzo[a]heptalen-7-yl]-benzamide]
SK-OV-3
  EC50: 45.6 nM
SK-MEL-2
  EC50: 60.7 nM
A549
  EC50: 43.9 nM
MCF7
  EC50: 10.5 nM
HCT-15
  EC50: 24.3 nM
